Reference: ChEMBL document CHEMBL1287689, “Sulfonamide derivatives of styrylheterocycles as a potent inhibitor of COX-2-mediated prostaglandin E2 production” (Bioorg Med Chem Lett, 2010)
Active and inactive are the calls of the source. The calls are words filed in the database; no cut-off is given here.

Columns and labels:
[1] = target: T1, Prostaglandin G/H synthase 2 (Mus musculus, UniProt Q05769); test: Inhibition of COX-2 mediated PGE2 production in LPS-induced mouse RAW264.7 cells; assay type: cell-based
T1 sequence (Q05769 whole entry): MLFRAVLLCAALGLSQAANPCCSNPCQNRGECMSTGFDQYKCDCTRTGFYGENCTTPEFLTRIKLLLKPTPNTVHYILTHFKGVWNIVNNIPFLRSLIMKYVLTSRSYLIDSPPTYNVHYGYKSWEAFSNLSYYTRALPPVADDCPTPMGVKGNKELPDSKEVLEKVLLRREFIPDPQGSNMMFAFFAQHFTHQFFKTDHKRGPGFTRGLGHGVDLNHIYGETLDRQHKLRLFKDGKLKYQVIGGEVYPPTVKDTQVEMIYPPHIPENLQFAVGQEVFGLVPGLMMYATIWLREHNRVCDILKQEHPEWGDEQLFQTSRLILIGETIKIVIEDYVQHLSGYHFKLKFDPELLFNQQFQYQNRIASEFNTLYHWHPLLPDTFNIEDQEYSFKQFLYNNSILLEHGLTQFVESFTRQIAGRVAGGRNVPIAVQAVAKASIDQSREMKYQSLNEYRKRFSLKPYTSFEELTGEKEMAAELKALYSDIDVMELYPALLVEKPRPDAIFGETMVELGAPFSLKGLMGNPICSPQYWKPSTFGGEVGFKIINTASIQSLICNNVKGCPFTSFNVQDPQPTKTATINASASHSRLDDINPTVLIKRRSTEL

RAW264.7 = test: Inhibition of COX-2 gene expression in LPS-stimulated mouse RAW264.7 cells after 24 hrs by RT-PCR analysis; assay type: functional, cell-based

IC50 [1] [nM]	SMILES	inhibition (RAW264.7)
380	CS(=O)(=O)c1ccc(/C=C/c2cccs2)cc1	–
520	CS(=O)(=O)c1ccc(/C=C/c2ccsc2)cc1	–
> 50000	CS(=O)(=O)c1ccc(/C=C/c2ccoc2)cc1	–
440	NS(=O)(=O)c1ccc(/C=C/c2ccsc2)cc1	–
13	NS(=O)(=O)c1ccc(/C=C/c2cccs2)cc1	Active
> 50000	NS(=O)(=O)c1ccc(/C=C/c2ccoc2)cc1	–
1180	CS(=O)(=O)c1ccc(/C=C/c2ccco2)cc1	–
18300	NS(=O)(=O)c1ccc(/C=C/c2ccco2)cc1	–
